“Also recorded” adds a separate entry of the source. Where two headings read alike, the source gives them in different places. Peptide text beside a SMILES is read from it.

The target of one assay is T1, human GLP-1-R (Homo sapiens, UniProt P43220).
T1 construct: expressed in transfected cells
Briefly: GLP-1-receptor efficacy assay (cAMP in HEK293 cells). The class given is cell-based. How it is done:
The 5′-end primers additionally encoded a near Kozak consensus sequence to ensure efficient translation.
48 hr after transfection cells were seeded for limited dilution cloning and selected with 1 mg/ml G418 in the culture medium.
On the day of analysis, growth medium was removed and the cells washed once with 200 μl Tyrode buffer. Cells were incubated in 100 μl Tyrode buffer containing increasing concentrations of test peptides, 100 μM IBMX, and 6 mM glucose for 15 min at 37° C. The reaction was stopped by addition of 25 μl 0.5 M HCl and incubated on ice for 60 min. The cAMP content was estimated using the FlashPlate® cAMP kit from Perkin-Elmer.

The subject of assay [1] is primary rat adipocyte cultures. The assay is classed as cell-based. As to the method:
Adipocytes were isolated from epididymal fat dissected from normal young adult Sprague-Dawley rats. The fat lumps were minced, incubated and shaken (220 rpm) with collagenase (1 mg/ml) in Krebs-Ringer buffer containing 4% BSA (KRB-BSA) for 60 minutes at 37° C. The suspension was filtered through a nylon filter (160 μm pore size) and the filtrate centrifuged at 200×g for 3 min. The subjacent medium beneath the upper floating layer of adipocytes was removed with a Pasteur-pipette. The adipocytes were washed 3 times in KRB-BSA buffer by re-suspension and centrifugation. The adipocytes were re-suspended in KRB-BSA, mixed, incubated in and shaken with test compounds in 96-deep well plates (50,000 cells/well) in a total volume of 1 ml at 37° C. for 60 min. The plates were placed on ice for at least 10 min after incubation followed by centrifugation at 200×g for 3 min. 300 μl of the buffer beneath the adipocyte layer were collected in a 96-deep well plate. This process was repeated two more times and the 3 extracts collected from each culture pooled together.

Assay [2] has as its system diet induced obese (DIO) mice. Briefly: 28 day treatment of diet induced obese (DIO) mice: body weight gain. The class given is in vivo. As to the method:
Four weeks before drug treatments, C57BI/6 male mice (7 weeks)) (N=10-12 animals in each group) were put on high fat diet (HFD) and their day-night cycle reversed with lights On/Off at 2000/0800 hour. Experimental animals were conditioned to treatment by daily injections (s.c.) of 0.1 ml vehicle and acclimatized to handling by weighing them twice a week one week before start of drug administrations. The day before start of experiment, mice were stratified into groups with similar body weight (BW) and the next day groups of stratified mice were treated (b.i.d.; s.c.) with ZP2669 (SEQ ID NO: 4) (500 nmol/kg) or vehicle (Acetate-buffer). ZP2669 (SEQ ID NO: 4) was given in isotonic acetate buffer (pH 4.8; 2.5 μl/g BW). […] Body weights were recorded daily and used to administer the body weight-corrected doses of peptide throughout the study. […] Blood plasma samples were stored at −80° C. until analyzed for cholesterol, HDL and LDL using commercially available kits. Body weight gains throughout the treatment period were calculated for each animal by subtracting its weight at the initiation of treatment.
The effects of treatment on body weight gain and cholesterols were assessed by 2-way ANOVA with repeated measures and Bonferoni post-hoc analyses, using GraphPad Prism version 4. […]

In another assay the test system is C57BI/6 mice. The assay is described as follows: Food intake in normal mice. The class given is in vivo. Conditions: fasted mice, s.c.; PYY3-36 30 nmol/kg, glucagon 500 nmol/kg, ZP2669 500 nmol/kg. The text has this:
Differences were considered significant at the p<0.05 level.

The subject of another assay is db/db mice. The assay is described as follows: Oral glucose tolerance test (OGTT) in db/db mice. Conditions: 45 nmol/kg i.p. The class given is in vivo. How it is done: Db/db mice were fasted overnight and an initial blood sample (fasting blood glucose level) taken just before administration (i.p.) of vehicle (Acetate buffer, 20 mM acetic acid, 250 mM mannitol, pH 5.0) or the test compound ZP2669 (SEQ ID NO: 4) (45 nmol/kg in acetate buffer). The animals were kept fasted during the experiment to prevent confounding food intake. Fifteen minutes later an oral dose of glucose (1 g/kg in 5 ml/kg) was given and BG levels were measured at t=30 min, t=60 min, t=120 min and t=240 min.
Difference from baseline (t=0) was calculated for each time point and AUC0-240 min values were determined. Statistical analyses of AUC values by one-way ANOVA and Dunnetts post-hoc analyses were performed with GraphPad Prism version 4. Differences were considered significant at the p<0.05 level.

In assay [3] the test system is diet induced obese (DIO) mice. Briefly: 28 day treatment of DIO mice: plasma cholesterols (cholesterol, HDL, LDL). The assay is classed as in vivo. The conditions noted are these: DIO mice treated 4 weeks b.i.d., compared to vehicle. As to the method: Four weeks before drug treatments, C57BI/6 male mice (7 weeks)) (N=10-12 animals in each group) were put on high fat diet (HFD) and their day-night cycle reversed with lights On/Off at 2000/0800 hour. Experimental animals were conditioned to treatment by daily injections (s.c.) of 0.1 ml vehicle and acclimatized to handling by weighing them twice a week one week before start of drug administrations. […] A non-obese control group maintained on regular chow was treated with vehicle in the same treatment regime as the DIO groups. Body weights were recorded daily and used to administer the body weight-corrected doses of peptide throughout the study. Animals were fasted overnight before sacrifice. An eye blood sample (0.6 ml EDTA) was obtained the following morning immediately before cervical dislocation. Blood plasma samples were stored at −80° C. until analyzed for cholesterol, HDL and LDL using commercially available kits. Body weight gains throughout the treatment period were calculated for each animal by subtracting its weight at the initiation of treatment.
The effects of treatment on body weight gain and cholesterols were assessed by 2-way ANOVA with repeated measures and Bonferoni post-hoc analyses, using GraphPad Prism version 4. Differences were considered significant at the p<0.05 level.

T1 sequence (P43220 24-463): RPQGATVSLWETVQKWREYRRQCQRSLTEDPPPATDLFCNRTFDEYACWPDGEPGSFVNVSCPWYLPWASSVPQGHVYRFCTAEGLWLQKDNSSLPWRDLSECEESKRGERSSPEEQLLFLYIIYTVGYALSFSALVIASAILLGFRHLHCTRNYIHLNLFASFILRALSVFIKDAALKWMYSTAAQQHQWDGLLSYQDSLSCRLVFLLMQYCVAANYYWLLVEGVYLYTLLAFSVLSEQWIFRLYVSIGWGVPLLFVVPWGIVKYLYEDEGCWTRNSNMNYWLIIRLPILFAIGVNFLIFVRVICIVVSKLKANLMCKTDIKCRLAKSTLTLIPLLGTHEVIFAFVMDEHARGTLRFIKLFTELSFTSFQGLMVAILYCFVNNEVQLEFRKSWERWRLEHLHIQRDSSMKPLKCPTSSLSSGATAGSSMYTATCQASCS

Take Exendin-4 [reference compound]: the GLP-1R agonism result at human GLP-1-R (result in words) is given as “very potent GLP-1R agonist”. Further, the Effect on lipolysis result in assay [1] (primary adipocyte cultures, result in words) is given as “no effect”. Moreover, the “Stimulation of lipolysis EC50 (nM)” value in assay [1] (primary rat adipocyte cultures, 60 min at 37° C.) was “No effect”.
`CSCC[C@H](NC(=O)[C@H](CC(C)C)NC(=O)[C@H](Cc1c[nH]c2ccccc12)NC(=O)[C@H](CCC(N)=O)NC(=O)[C@@H](NC(=O)[C@H](Cc1ccccc1)NC(=O)[C@H](CC(=O)O)NC(=O)[C@H](CCC(N)=O)NC(=O)[C@H](C)NC(=O)[C@H](C)NC(=O)[C@H](CCCCN)NC(=O)[C@H](CO)NC(=O)[C@H](CC(=O)O)NC(=O)[C@H](CC(C)C)NC(=O)[C@H](Cc1ccc(O)cc1)NC(=O)[C@H](CCCCN)NC(=O)[C@H](CO)NC(=O)[C@H](Cc1ccc(O)cc1)NC(=O)[C@H](CC(=O)O)NC(=O)[C@H](CO)NC(=O)[C@@H](NC(=O)[C@H](Cc1ccccc1)NC(=O)[C@@H](NC(=O)CNC(=O)[C@H](CCC(N)=O)NC(=O)[C@H](CO)NC(=O)[C@@H](N)Cc1c[nH]cn1)[C@@H](C)O)[C@@H](C)O)C(C)C)C(=O)N[C@@H](CC(N)=O)C(=O)N[C@H](C(N)=O)[C@@H](C)O` [ZP2667] (H-HSQGTFTSDYSKYLDSKAAQDFVQWLMNT-NH2): a half-maximal response in assay [1] (EC50) required 0.75 nM. For the same compound, in assay [1] (primary adipocyte cultures), the “Lipolysis potency relative to OXM” value amounted to 240 times and the “Lipolysis potency relative to glucagon” value is 8 times.
Take `CC(C)C[C@H](NC(=O)[C@H](CCCCN)NC(=O)[C@H](CC(C)C)NC(=O)[C@H](Cc1c[nH]c2ccccc12)NC(=O)[C@H](CCCNC(=N)N)NC(=O)[C@@H](NC(=O)[C@H](Cc1ccccc1)NC(=O)[C@H](CC(=O)O)NC(=O)[C@H](CCCNC(=N)N)NC(=O)[C@H](C)NC(=O)[C@H](C)NC(=O)[C@H](CCCCN)NC(=O)[C@H](CO)NC(=O)[C@H](CC(=O)O)NC(=O)[C@H](CC(C)C)NC(=O)[C@H](Cc1ccc(O)cc1)NC(=O)[C@H](CCCCN)NC(=O)[C@H](CO)NC(=O)[C@H](Cc1ccc(O)cc1)NC(=O)[C@H](CC(=O)O)NC(=O)[C@H](CO)NC(=O)[C@@H](NC(=O)[C@H](Cc1ccccc1)NC(=O)[C@@H](NC(=O)CNC(=O)[C@H](CCC(N)=O)NC(=O)[C@H](CO)NC(=O)[C@@H](N)Cc1c[nH]cn1)[C@@H](C)O)[C@@H](C)O)C(C)C)C(=O)N[C@@H](C)C(N)=O` [ZP2668] (H-HSQGTFTSDYSKYLDSKAARDFVRWLKLA-NH2): the EC50 at human GLP-1-R (HEK293 cells expressing human GLP-1-R, cAMP, 15 min at 37° C., read-out: GLP-1R EC50) was 0.08 nM; in assay [1], 101 nM. Further, the “Lipolysis potency relative to OXM” value in assay [1] (primary adipocyte cultures) is on record as “in the same order of magnitude as OXM”.
The compound `CC(C)C[C@H](NC(=O)[C@H](CC(C)C)NC(=O)[C@H](Cc1c[nH]c2ccccc12)NC(=O)[C@H](CCC(=O)O)NC(=O)[C@@H](NC(=O)[C@H](Cc1ccccc1)NC(=O)[C@H](CC(=O)O)NC(=O)[C@H](Cc1c[nH]cn1)NC(=O)[C@H](C)NC(=O)[C@H](C)NC(=O)[C@H](CCCCN)NC(=O)[C@H](CO)NC(=O)[C@H](CC(=O)O)NC(=O)[C@H](CC(C)C)NC(=O)[C@H](Cc1ccc(O)cc1)NC(=O)[C@H](CCCCN)NC(=O)[C@H](CO)NC(=O)[C@H](Cc1ccc(O)cc1)NC(=O)[C@H](CC(=O)O)NC(=O)[C@H](CO)NC(=O)[C@@H](NC(=O)[C@H](Cc1ccccc1)NC(=O)[C@@H](NC(=O)CNC(=O)[C@H](CCC(N)=O)NC(=O)[C@H](CO)NC(=O)[C@@H](N)Cc1c[nH]cn1)[C@@H](C)O)[C@@H](C)O)C(C)C)C(=O)N[C@@H](CCCNC(=N)N)C(=O)N[C@@H](C)C(N)=O` [ZP2669] (H-HSQGTFTSDYSKYLDSKAAHDFVEWLLRA-NH2) yielded an EC50 in assay [1] of 4.6 nM. In assay [1] (primary adipocyte cultures), the “Lipolysis potency relative to OXM” value is on record as 40 times and the “Lipolysis potency relative to glucagon” value was “equipotent with glucagon”. Further, the “Effect on body weight gain” value in assay [2] (500 nmol/kg b.i.d. s.c., 28 days, high fat diet) is listed as “decreased body weight gain to a level similar to that observed with chow feeding”. In addition, in assay [2] (4 weeks treatment of DIO mice), the “Effect on fat deposition” value was “significantly decreased fat deposition”. Moreover, in the assay on C57BI/6 mice, the “Effect on food intake during the first hour” value was “significantly (P<0.05) decreased food intake”. Besides, the “Improvement of glucose tolerance” value in the assay on db/db mice (15 min before oral glucose 1 g/kg, AUC0-240 min) was found to be 77.1%. Also, the “Effect on oral glucose tolerance” value in the assay with db/db mice (diabetic db/db mice, result in words) was “significantly (P<0.01) improved glucose tolerance”. Also, in assay [3], the “Effect on HDL/LDL ratios” value is listed as “significant compared to vehicle; also recorded: significant effect” and the “Effect on blood concentration of LDL cholesterol” value is “significant compared to vehicle; also recorded: significant effect”.
Regarding `CC(C)C[C@H](NC(=O)[C@H](CC(C)C)NC(=O)[C@H](Cc1c[nH]c2ccccc12)NC(=O)[C@H](CCC(N)=O)NC(=O)[C@@H](NC(=O)[C@H](Cc1ccccc1)NC(=O)[C@H](CC(=O)O)NC(=O)[C@H](Cc1c[nH]cn1)NC(=O)[C@H](C)NC(=O)[C@H](C)NC(=O)[C@H](CCCCN)NC(=O)[C@H](CO)NC(=O)[C@H](CC(=O)O)NC(=O)[C@H](CC(C)C)NC(=O)[C@H](Cc1ccc(O)cc1)NC(=O)[C@H](CCCCN)NC(=O)[C@H](CO)NC(=O)[C@H](Cc1ccc(O)cc1)NC(=O)[C@H](CC(=O)O)NC(=O)[C@H](CO)NC(=O)[C@@H](NC(=O)[C@H](Cc1ccccc1)NC(=O)[C@@H](NC(=O)CNC(=O)[C@H](CCC(N)=O)NC(=O)[C@H](CO)NC(=O)[C@@H](N)Cc1c[nH]cn1)[C@@H](C)O)[C@@H](C)O)C(C)C)C(=O)N[C@@H](CCCNC(=N)N)C(=O)N[C@@H](C)C(N)=O` [Compound L006-0172] (H-HSQGTFTSDYSKYLDSKAAHDFVQWLLRA-NH2), the EC50 at human GLP-1-R (read-out: GLP-1R EC50 (nM), crude peptides marked *) is 21 nM.
On to “PYY(3-36): internal positive control in the food intake test, anorectic effect [reference compound]”, for which the “Effect on food intake during the first hour” value with C57BI/6 mice was “showed an anorectic effect”.

For orientation: EC50 means the concentration needed to bring the measured effect to its halfway point.

Values taken from patent US8685919B2 (Zealand Pharma A/S, priority 2008, dated 2014).
